Laboratory results published in PubChem BioAssay (NCI).
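All cell lines were grown in 96-well plates and treated with compound for 48 hours. TGI: total growth inhibition.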

Experiments:
Assay in all cases: NCI-60 cell line screen, 48 h
[1] = tested on: RXF 393 renal
[2] = tested on: MCF7 breast
[3] = tested on: SK-MEL-5 melanoma
[4] = tested on: UACC-62 melanoma
[5] = tested on: SW-620 colon
[6] = tested on: MDA-N
[7] = tested on: SK-OV-3 ovarian
[8] = tested on: CAKI-1 renal
[9] = tested on: MOLT-4 leukemia
[10] = tested on: IGROV1 ovarian
[11] = tested on: SF-268 CNS
[12] = tested on: SR leukemia
[13] = tested on: OVCAR-4 ovarian
[14] = tested on: DU-145 prostate
[15] = tested on: CCRF-CEM leukemia
[16] = tested on: NCI/ADR-RES ovarian
[17] = tested on: K-562 leukemia
[18] = tested on: NCI-H226 lung
[19] = tested on: HT29 colon
[20] = tested on: HOP-92 NSCLC
[21] = tested on: EKVX NSCLC
[22] = tested on: M14 melanoma
[23] = tested on: UO-31 renal
[24] = tested on: TK-10 renal
[25] = tested on: ACHN renal
[26] = tested on: SF-295 CNS
[27] = tested on: NCI-H522 lung
[28] = tested on: OVCAR-8 ovarian
[29] = tested on: MDA-MB-435
[30] = tested on: SN12C renal
[31] = tested on: MALME-3M melanoma
[32] = tested on: NCI-H23 lung
[33] = tested on: HOP-62 NSCLC
[34] = tested on: MDA-MB-231 breast
[35] = tested on: SNB-75 CNS
[36] = tested on: HCT-116 colon
[37] = tested on: NCI-H460 lung
[38] = tested on: A498 renal
[39] = tested on: BT-549 breast
[40] = tested on: RPMI-8226 leukemia
[41] = tested on: T-47D breast
[42] = tested on: A549 NSCLC
[43] = tested on: PC-3 prostate
[44] = tested on: SNB-19 CNS
[45] = tested on: 786-0 renal
[46] = tested on: KM12 colon
[47] = tested on: HL-60(TB) leukemia
[48] = tested on: UACC-257 melanoma
[49] = tested on: U251 CNS
[50] = tested on: COLO 205 colon
[51] = tested on: OVCAR-5 ovarian
[52] = tested on: OVCAR-3 ovarian
[53] = tested on: HCT-15 colon
[54] = tested on: HS 578T breast
[55] = tested on: LOX IMVI melanoma
[56] = tested on: SF-539 CNS
[57] = tested on: SK-MEL-2 melanoma
[58] = tested on: SK-MEL-28 melanoma
[59] = tested on: HCC-2998 colon

C[Si](C)(C)C#Cc1cc(-c2nc3ccccc3s2)ccc1N
TGI [1]: 32.8 µM | TGI [2]: 12 µM | TGI [3]: 29.4 µM | TGI [4]: 33.2 µM | TGI [5]: 35 µM | TGI [6]: 33.7 µM | TGI [7]: 41.9 µM | TGI [8]: 31 µM | TGI [9]: 97.4 µM | TGI [10]: 13.2 µM | TGI [11]: 32.1 µM | TGI [12]: 67.8 µM | TGI [13]: 29.8 µM | TGI [14]: 62.1 µM | TGI [15]: 59.4 µM | TGI [16]: 32.3 µM | TGI [17]: 70.6 µM | TGI [18]: 31.2 µM | TGI [19]: 38.6 µM | TGI [20]: 27.8 µM | TGI [21]: 25.7 µM | TGI [22]: 31 µM | TGI [23]: 26.4 µM | TGI [24]: 26.2 µM | TGI [25]: 29.1 µM | TGI [26]: 33.7 µM | TGI [27]: 27.3 µM | TGI [28]: 32.3 µM | TGI [29]: 34.1 µM | TGI [30]: 30.1 µM | TGI [31]: 23.7 µM | TGI [32]: 40.6 µM | TGI [33]: 29.9 µM | TGI [34]: 38 µM | TGI [35]: 27.5 µM | TGI [36]: 26.6 µM | TGI [37]: 31.1 µM | TGI [38]: 35 µM | TGI [39]: 33.1 µM | TGI [40]: 48.3 µM | TGI [41]: > 100 µM | TGI [42]: 40.7 µM | TGI [43]: 34.2 µM | TGI [44]: 34.6 µM | TGI [45]: 30.7 µM | TGI [46]: 34.2 µM | TGI [47]: 50 µM | TGI [48]: 34.8 µM | TGI [49]: 37.9 µM | TGI [50]: 29.5 µM | TGI [51]: 33.5 µM | TGI [52]: 39.2 µM | TGI [53]: 32.1 µM | TGI [54]: 51 µM | TGI [55]: 34 µM | TGI [56]: 34.5 µM

CC(=O)OCC(OC(C)=O)C(OC(C)=O)C(/C=N\Nc1nc2ccccc2c(=O)[nH]1)=N\Nc1nc2ccccc2c(=O)[nH]1 (configuration not stated)
TGI [1]: > 100 µM | TGI [2]: > 100 µM | TGI [3]: > 100 µM | TGI [4]: > 100 µM | TGI [5]: > 100 µM | TGI [6]: > 100 µM | TGI [7]: > 100 µM | TGI [8]: > 100 µM | TGI [9]: > 100 µM | TGI [10]: > 100 µM | TGI [11]: > 100 µM | TGI [12]: > 100 µM | TGI [14]: > 100 µM | TGI [15]: > 100 µM | TGI [16]: > 100 µM | TGI [17]: > 100 µM | TGI [18]: > 100 µM | TGI [19]: > 100 µM | TGI [20]: > 100 µM | TGI [21]: > 100 µM | TGI [22]: > 100 µM | TGI [23]: > 100 µM | TGI [25]: > 100 µM | TGI [26]: > 100 µM | TGI [27]: > 100 µM | TGI [57]: > 100 µM | TGI [28]: > 100 µM | TGI [29]: > 100 µM | TGI [30]: > 100 µM | TGI [58]: > 100 µM | TGI [31]: > 100 µM | TGI [32]: > 100 µM | TGI [33]: > 100 µM | TGI [34]: > 100 µM | TGI [35]: > 100 µM | TGI [36]: > 100 µM | TGI [37]: 47.6 µM | TGI [59]: 36.3 µM | TGI [39]: > 100 µM | TGI [40]: > 100 µM | TGI [41]: > 100 µM | TGI [42]: > 100 µM | TGI [43]: > 100 µM | TGI [44]: > 100 µM | TGI [45]: > 100 µM | TGI [46]: > 100 µM | TGI [47]: > 100 µM | TGI [48]: 34 µM | TGI [49]: > 100 µM | TGI [50]: > 100 µM | TGI [51]: > 100 µM | TGI [52]: > 100 µM | TGI [53]: > 100 µM | TGI [54]: > 100 µM | TGI [55]: > 100 µM | TGI [56]: > 100 µM
